# Results published in US8680054B2, “Suspension type topical formulations comprising cyclic depsipeptide” (Novartis AG, priority 2011, dated 2014).
# Tests used:
# [1] = Solubility of the compound of formula (II); type: physicochemical
# [2] = Stability of the compound of formula (II) in hydrophilic environment; type: physicochemical
smiles,measurement,setting,value
CC[C@H](C)[C@@H]1NC(=O)[C@H](Cc2ccc(O)cc2)N(C)C(=O)[C@H]([C@@H](C)CC)N2C(=O)[C@H](CC[C@H]2O)NC(=O)[C@H](CC(C)C)NC(=O)[C@@H](NC(=O)[C@H](CCC(N)=O)NC(=O)C(C)C)[C@@H](C)OC1=O [compound of formula (II)],solubility in lipophilic excipients,[1]; lipophilic excipients,low solubility
same,solubility in polar organic solvents,[1]; polar organic solvents,good solubility
same,solubility in water and aqueous buffers,[1]; water and aqueous buffers,moderate solubility
same,stability in the presence of water,[2]; presence of water,subject to hydrolysis
same,stability in a hydrophilic environment,[2]; water and polar organic solvents/co-solvents,tendency to degradeation
